Measurements taken from patent US5455271A, “Tight-binding inhibitors of leukotriene A4 hydrolase” (The Scripps Research Institute, priority 1993, dated 1995).
Read-outs that look alike come from different tables or passages of the source. One block for each molecule: values may come before it.

How the values were obtained:
aminopeptidase M = biological target: T1, aminopeptidase M (Sus scrofa, UniProt P15145); experiment: Inhibition of aminopeptidase M; type: biochemical
T1 sequence (P15145 1-963): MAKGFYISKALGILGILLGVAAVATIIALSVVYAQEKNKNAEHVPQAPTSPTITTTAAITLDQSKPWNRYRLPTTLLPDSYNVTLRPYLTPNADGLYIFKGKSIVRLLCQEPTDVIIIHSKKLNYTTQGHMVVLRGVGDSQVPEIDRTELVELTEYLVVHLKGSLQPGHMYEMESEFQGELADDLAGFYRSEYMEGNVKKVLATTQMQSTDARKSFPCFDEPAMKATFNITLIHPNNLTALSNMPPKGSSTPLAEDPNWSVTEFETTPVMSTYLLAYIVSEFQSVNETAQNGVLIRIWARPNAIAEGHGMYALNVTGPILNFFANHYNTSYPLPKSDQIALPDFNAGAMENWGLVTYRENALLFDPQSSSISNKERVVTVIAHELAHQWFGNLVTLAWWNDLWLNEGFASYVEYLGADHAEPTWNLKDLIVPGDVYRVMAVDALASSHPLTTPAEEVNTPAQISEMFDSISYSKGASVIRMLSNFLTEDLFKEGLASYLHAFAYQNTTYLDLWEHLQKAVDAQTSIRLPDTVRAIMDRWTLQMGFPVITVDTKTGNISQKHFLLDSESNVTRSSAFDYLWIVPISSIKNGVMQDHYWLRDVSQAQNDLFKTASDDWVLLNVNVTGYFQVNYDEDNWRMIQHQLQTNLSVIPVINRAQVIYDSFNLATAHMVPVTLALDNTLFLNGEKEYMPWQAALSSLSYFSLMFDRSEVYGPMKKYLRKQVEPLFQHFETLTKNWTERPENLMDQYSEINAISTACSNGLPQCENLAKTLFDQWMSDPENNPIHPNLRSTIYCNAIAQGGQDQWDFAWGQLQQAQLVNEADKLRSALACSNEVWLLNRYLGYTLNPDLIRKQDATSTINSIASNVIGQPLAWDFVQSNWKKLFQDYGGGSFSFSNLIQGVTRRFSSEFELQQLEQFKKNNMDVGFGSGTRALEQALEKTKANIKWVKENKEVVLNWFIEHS

[1] = biological target: cytosolic leucine aminopeptidase; experiment: Inhibition of cytosolic leucine aminopeptidase; type: biochemical
Thromboxane B2 (TXB2) = experiment: Inhibition of thromboxane B2 (TXB2) in calcium ionophore A-23187-stimulated human blood; type: cell-based
Experimental: (§4) Blood was drawn from a human volunteer, and a compound solution at one of three concentrations (Table 3) or a single concentration (Table 4), or solution alone (vehicle) was added to a one ml aliquot of the blood. After incubation for 15 minutes, 14 μg of calcium ionophore A-23187 (as the free acid) was added, and the incubation continued for another 15 minutes. The reactions were stopped by immersion of the containers into slush ice, and the samples were centrifuged at 11,000 ×g to pellet red cells and leukocytes. An aliquot of the plasma was then assayed for the presence of thromboxane B2 or leukotriene B4 by standard radioimmunoassay techniques.

Leukotriene B4 (LTB4) = experiment: Inhibition of leukotriene B4 (LTB4) in calcium ionophore A-23187-stimulated human blood; type: cell-based
Experimental: as §4

15-lipoxygenase = experiment: Inhibition of 15-lipoxygenase in A-23187-stimulated PMNL with exogenous arachidonic acid; type: cell-based
From the text: (§1) Compounds 24 and 27 were also studied for their abilities to inhibit 5- and 15-lipoxygenase using calcium ionophore A-23187-stimulated polymorphonuclear leukocytes (PMNL) in the presence of exogenous arachidonic acid. […] LTC4 Synthase activity in human platelets was also not inhibited.

LTC4 Synthase = experiment: Inhibition of LTC4 synthase activity in human platelets; type: cell-based
From the text: as §1

[2] = test system: LTB4 Formation in intact PMNL; experiment: LTB4 formation in calcium ionophore A-23187-stimulated intact PMNL; type: cell-based; settings: for IC50: Homo sapiens, PMNL, calcium ionophore A-23187-stimulated, dose dependent
[3] = biological target: T2, LTA4 hydrolase (epoxide hydrolase activity) (Homo sapiens, UniProt P09960); experiment: Inhibition of epoxide hydrolase activity of LTA4 hydrolase, LTA4 as substrate; type: biochemical; settings: Table 5; read-out: IC50 Epoxide Hydrolase
T2 construct: obtained from human leukocytes and was purified to apparent homogeneity; from tissue; host or cells: human leukocytes (purified to apparent homogeneity)
T2 sequence (P09960 1-611): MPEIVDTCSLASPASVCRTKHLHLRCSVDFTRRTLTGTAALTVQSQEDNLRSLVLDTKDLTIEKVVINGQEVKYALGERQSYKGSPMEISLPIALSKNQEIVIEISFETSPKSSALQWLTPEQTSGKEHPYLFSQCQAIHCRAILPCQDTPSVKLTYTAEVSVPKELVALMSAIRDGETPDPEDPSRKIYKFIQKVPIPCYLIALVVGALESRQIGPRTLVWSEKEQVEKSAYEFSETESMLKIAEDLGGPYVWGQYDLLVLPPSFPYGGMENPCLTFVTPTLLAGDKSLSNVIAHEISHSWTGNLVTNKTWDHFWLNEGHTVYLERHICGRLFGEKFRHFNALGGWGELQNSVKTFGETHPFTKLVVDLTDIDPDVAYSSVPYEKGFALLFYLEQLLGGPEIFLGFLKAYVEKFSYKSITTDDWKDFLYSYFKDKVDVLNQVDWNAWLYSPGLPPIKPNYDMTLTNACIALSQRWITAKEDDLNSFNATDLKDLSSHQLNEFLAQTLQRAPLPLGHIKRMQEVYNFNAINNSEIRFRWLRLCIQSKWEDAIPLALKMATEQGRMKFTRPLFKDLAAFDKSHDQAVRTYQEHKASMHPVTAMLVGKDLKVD
Experimental: Aliquots of enzyme (2.5 mg) were preincubated for 30-40 minutes at room temperature in 100 mL of 50 mM HEPES, pH 8, containing various amounts of the respective inhibitor. […] After addition of 200 ng PGB1 (internal standard), samples were acidified to pH value of 3 with 0.1M HCl, extracted on Chromabond C18 columns (Mackerey & Nagel), and finally analyzed on a computerized Waters HPLC system. The column (Radial-Pak C18 cartridge, 100×5 mm, Waters) was eluted with a mixture of methanol/water/acetic acid (70:30:0.01, v/v) at a flow rate of 1.2 mL/minutes. The UV absorbance of the eluate was monitored continuously at 270 nm. Amounts of LTB4 were computer calculated from peak area ratios between LTB4 and the internal standard PGB1. Peak area ratios were converted into molar ratios from comparisons with standard curve constructed from injections of known amounts of the respective compound.

LTA4 hydrolase = biological target: T3, LTA4 hydrolase (Homo sapiens, UniProt P09960); experiment: Inhibition of LTA4 hydrolase, amidase (aminopeptidase) activity, L-alanyl p-nitroanilide as substrate; type: biochemical; design: LTA4 hydrolase purified from human leukocytes; from tissue; host or cells: human leukocytes (purified enzyme)
T3 sequence (P09960 1-611): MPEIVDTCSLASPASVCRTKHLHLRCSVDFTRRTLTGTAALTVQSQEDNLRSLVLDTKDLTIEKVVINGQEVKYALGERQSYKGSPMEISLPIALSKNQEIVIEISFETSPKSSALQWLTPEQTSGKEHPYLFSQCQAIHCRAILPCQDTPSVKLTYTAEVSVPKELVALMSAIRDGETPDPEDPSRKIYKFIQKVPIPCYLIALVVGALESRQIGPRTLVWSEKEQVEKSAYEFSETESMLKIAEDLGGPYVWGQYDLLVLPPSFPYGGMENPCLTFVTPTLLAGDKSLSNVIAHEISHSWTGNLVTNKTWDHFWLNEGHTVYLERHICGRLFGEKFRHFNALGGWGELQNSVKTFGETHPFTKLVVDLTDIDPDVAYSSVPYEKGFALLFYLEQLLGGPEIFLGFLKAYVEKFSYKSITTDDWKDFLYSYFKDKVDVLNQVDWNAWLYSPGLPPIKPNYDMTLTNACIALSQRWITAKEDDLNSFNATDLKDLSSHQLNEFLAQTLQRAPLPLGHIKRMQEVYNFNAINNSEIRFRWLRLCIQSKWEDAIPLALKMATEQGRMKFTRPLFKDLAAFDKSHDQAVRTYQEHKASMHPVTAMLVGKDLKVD
Experimental: ^a All assays were performed in TrisHCl buffer (0.05 M, pH 8.0) with
Lalanyl pnitroanilide (1.5 mM) as substrate unless otherwise indicated.
for each assay (final volume = 1.0 mL). pNitroaniline formation was
monitored spectrophotometrically at 405 nm. Thiol compounds were assayed
in the presence of 5 mM DTT. The values shown are within ± 5 percent
accuracy. Dixon plot was used to determine the Ki values.

cyclooxygenase = settings: read-out: IC50, cyclooxygenase production of PGD2; cited from earlier work
5-lipoxygenase = settings: read-out: IC50, 5-lipoxygenase production of 5-HETE; cited from earlier work
[4] = substrate: N=C(N)NCCC[C@H](N)C(=O)Nc1ccc([N+](=O)[O-])cc1; experiment: purified protein, by the assay type; settings: other: Table 1, 50 mM TrisCl, pH 7.6, 0.1 M NaCl
[5] = substrate: CC(C)C[C@H](N)C(=O)Nc1ccc([N+](=O)[O-])cc1; experiment: Kinetic parameters of LTA4 hydrolase-catalyzed hydrolysis of LTA4 and amide substrates; type: biochemical; settings: other: Table 1, 50 mM TrisCl, pH 7.6, 0.1 M NaCl
Experimental: (§2) Several amino acid amides were assayed as substrates for LTA4 hydrolase. Yuan et al., Bioorg. & Med. Chem. Lett., 1:551 (1991).
(§3) ^a Determined in 50 mM TrisCl, pH 7.6, in the presence of 0.1 M NaCl, […]

[6] = substrate: CCCCC/C=C\C\C=C/C=C/C=C/[C@@H]1O[C@H]1CCCC(=O)O; experiment: as above; type: biochemical; settings: other: Table 1, 50 mM TrisCl, pH 7.6, 0.1 M NaCl
Experimental: as §2, §3

[7] = substrate: C[C@H](N)C(=O)Nc1ccc([N+](=O)[O-])cc1; experiment: as above; type: biochemical; settings: other: Table 1, 50 mM TrisCl, pH 7.6, 0.1 M NaCl
Experimental: as §2, §3

[8] = substrate: NCCCC[C@H](N)C(=O)Nc1ccc([N+](=O)[O-])cc1; experiment: as above; type: biochemical; settings: other: Table 1, 50 mM TrisCl, pH 7.6, 0.1 M NaCl
Experimental: as §2, §3

[9] = substrate: O=C(Nc1ccc([N+](=O)[O-])cc1)[C@@H]1CCCN1; experiment: as above; type: biochemical; settings: other: Table 1, 50 mM TrisCl, pH 7.6, 0.1 M NaCl
Experimental: as §2, §3

[10] = read-out: % Inhibition TXB2, Table 4, 10 μM
[11] = Homo sapiens, read-out: % Inhibition LTB4, Table 3
[12] = Homo sapiens, read-out: % Inhibition LTB4, Table 4
[13] = Homo sapiens, Table 3, read-out: % Inhibition LTB4

Molecule: N[C@@H](Cc1ccc(OCc2ccccc2)cc1)[C@H](O)C(=O)OCc1ccccc1 [Compound 24]
IC50 (aminopeptidase M): > 100000 nM
IC50 [1]: 80000 nM
inhibition at 1 µM (Thromboxane B2 (TXB2); read-out: % Inhibition TXB2, Table 3, 1 μM): 0%
inhibition at 3 µM (Thromboxane B2 (TXB2); read-out: % Inhibition TXB2, Table 3, 3 μM): 17%
inhibition at 10 µM (Thromboxane B2 (TXB2); read-out: % Inhibition TXB2, Table 3, 10 μM): 4%
inhibition at 10 µM (Thromboxane B2 (TXB2); [10]): 0%
inhibition at 1 µM (Leukotriene B4 (LTB4); [11]): 7%
inhibition at 3 µM (Leukotriene B4 (LTB4); [11]): 44%
inhibition at 10 µM (Leukotriene B4 (LTB4); [11]): 39%
inhibition at 10 µM (Leukotriene B4 (LTB4); [12]): 18%
inhibition of 15-lipoxygenase activity (in words) (15-lipoxygenase): No inhibition
inhibition of LTC4 synthase activity (in words) (LTC4 Synthase): not inhibited
IC50 [2]: 100 to 200 nM
activity in intact PMNL compared with isolated enzyme (in words) ([2]; intact PMNL versus isolated enzyme): unexpectedly much more active in this assay using intact PMNL than in assays with the isolated enzyme

IC50 [3]: 100000 nM
IC50 (aminopeptidase M): 80000 nM
tightness of binding to the enzyme relative to Compound 23 (LTA4 hydrolase; Compound 25 versus Compound 23): 30 times
IC50 (LTA4 hydrolase; L-alanyl p-nitroanilide 1.5 mM, pH 8.0, thiols with 5 mM DTT): 600 nM
selectivity for LTA4 binding (in words) (LTA4 hydrolase; versus other aminopeptidases): selective for LTA4 binding
Molecule: COC(=O)C(=O)[C@@H](N)Cc1ccc(OCc2ccccc2)cc1 [Compound 25]
inhibition at 1 µM (Thromboxane B2 (TXB2); Table 3, 1 μM, read-out: % Inhibition TXB2): 25%
inhibition at 3 µM (Thromboxane B2 (TXB2); Table 3, 3 μM, read-out: % Inhibition TXB2): 20%
inhibition at 10 µM (Thromboxane B2 (TXB2); Table 3, 10 μM, read-out: % Inhibition TXB2): 41%
inhibition at 1 µM (Leukotriene B4 (LTB4); [13]): 29%
inhibition at 3 µM (Leukotriene B4 (LTB4); [13]): 59%
inhibition at 10 µM (Leukotriene B4 (LTB4); [13]): 39%

Molecule: COc1ccc(-n2nc(CCC(=O)N(C)O)cc2-c2ccc(Cl)cc2)cc1 [Tepoxalin]
potency in the blood eicosanoid assay (in words) (Leukotriene B4 (LTB4); Table 3 assay system): more potent than any compound in this table
IC50 (cyclooxygenase): 200 nM
IC50 (5-lipoxygenase): 1290 nM

Molecule: Cl.N[C@H](CS)Cc1ccc(OCc2ccccc2)cc1 [Compound 27, (2S)-3-[4-(benzyloxy)phenyl]-2-amino-propanethiol HCl]
IC50 [1]: > 50000 nM
inhibition at 10 µM (Thromboxane B2 (TXB2); [10]): 100%
inhibition at 10 µM (Leukotriene B4 (LTB4); [12]): 100%
IC50 (Leukotriene B4 (LTB4); Homo sapiens, read-out: IC50 in this assay (human blood)): ~1100 nM
inhibition of 15-lipoxygenase activity (in words) (15-lipoxygenase): No inhibition
inhibition of LTC4 synthase activity (in words) (LTC4 Synthase): not inhibited
IC50 [2]: 100 to 200 nM

B1: LTA4 hydrolase (Homo sapiens) (protein)
chain: MPEIVDTCSLASPASVCRTKHLHLRCSVDFTRRTLTGTAALTVQSQEDNLRSLVLDTKDLTIEKVVINGQEVKYALGERQSYKGSPMEISLPIALSKNQEIVIEISFETSPKSSALQWLTPEQTSGKEHPYLFSQCQAIHCRAILPCQDTPSVKLTYTAEVSVPKELVALMSAIRDGETPDPEDPSRKIYKFIQKVPIPCYLIALVVGALESRQIGPRTLVWSEKEQVEKSAYEFSETESMLKIAEDLGGPYVWGQYDLLVLPPSFPYGGMENPCLTFVTPTLLAGDKSLSNVIAHEISHSWTGNLVTNKTWDHFWLNEGHTVYLERHICGRLFGEKFRHFNALGGWGELQNSVKTFGETHPFTKLVVDLTDIDPDVAYSSVPYEKGFALLFYLEQLLGGPEIFLGFLKAYVEKFSYKSITTDDWKDFLYSYFKDKVDVLNQVDWNAWLYSPGLPPIKPNYDMTLTNACIALSQRWITAKEDDLNSFNATDLKDLSSHQLNEFLAQTLQRAPLPLGHIKRMQEVYNFNAINNSEIRFRWLRLCIQSKWEDAIPLALKMATEQGRMKFTRPLFKDLAAFDKSHDQAVRTYQEHKASMHPVTAMLVGKDLKVD
Km [4]: 200 µM
Vmax [4]: 135 nmol/min/mg
Km [5]: 300 µM
Vmax [5]: 135 nmol/min/mg
Km [6]: 7.6 µM
Km [7]: 500 µM
Vmax [7]: 530 nmol/min/mg
Km [8]: 100 µM
Vmax [8]: 30 nmol/min/mg
Km [9]: 100 µM
Vmax [9]: 135 nmol/min/mg
